How the values were obtained:
GTL16 cells = assay: GTL16 cell viability assay (CellTiter Glo); type: cell-based; settings: Homo sapiens, GTL 16, GTL16 gastric cancer cells, 24 hours, triplicates, read-out: GTL-16 Proliferation IC50
Experimental: GTL16 cell line is derived from a gastric cancer patient. GTL16 expresses high level of c-Met receptor tyrosine kinase due to the gene amplification.
GTL16 cells were seeded in DMEM medium with 10% FBS and 1% Pene. & Strep. at 5000 cells/well/90 μL in 96 well plate and incubated overnight for attachment at 37° C. in 5% CO2 incubator. 10-fold serials dilutions of compounds were added to the cell as 10 μL/well. The final assay volume was 100 μl/well. The assay plates were incubated at 37° C. in 5% CO2 incubator for 24 hours. […] Briefly, the plates were cooled at room temperature for 10 mins and 100 μl of CellTiter Glo reagent was added into each well. Plates were shaken for 10 mins. The chemiluminescent light unit was read in Envision from Perkin Elmer. All the tests were run at triplicates. The IC50 was calculated using Spotfire software.

[1] = target: c-MET receptor tyrosine kinase, GST-c-MET(969-1390) (Homo sapiens, UniProt P08581); assay: EPK c-MET profiling assay (LanthaScreen TR-FRET kinase assay); type: biochemical; settings: 2 μM ATP, 0.3 nM enzyme, 60 minutes at room temperature; end point measurement, repeats can be about two times higher or lower; read-out: c-Met Biochem IC50
Chain of c-MET receptor tyrosine kinase, GST-c-MET(969-1390) (P08581 969-1390): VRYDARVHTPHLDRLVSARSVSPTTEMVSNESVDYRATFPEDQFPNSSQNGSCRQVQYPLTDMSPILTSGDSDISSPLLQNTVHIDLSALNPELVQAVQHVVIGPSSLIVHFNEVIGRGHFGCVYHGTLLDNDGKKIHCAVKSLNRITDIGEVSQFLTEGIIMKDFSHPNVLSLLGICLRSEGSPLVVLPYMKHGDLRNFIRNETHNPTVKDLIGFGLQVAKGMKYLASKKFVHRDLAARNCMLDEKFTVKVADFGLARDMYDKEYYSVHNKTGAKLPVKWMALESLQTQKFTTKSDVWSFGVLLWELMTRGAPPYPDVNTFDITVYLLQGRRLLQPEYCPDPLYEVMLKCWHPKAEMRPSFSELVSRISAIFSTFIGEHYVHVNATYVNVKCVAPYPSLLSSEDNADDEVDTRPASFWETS
Experimental: The exemplified compounds of the present invention were assayed in an antibody based kinase phosphorylation assay as follows.
EPK c-MET Profiling Assay:
The EPK kinase assay for c-MET receptor tyrosine kinase was developed, using the purified recombinant GST-fusion protein, containing the cytoplasmic domain of the enzyme. GST-c-MET(969-1390) was purified by affinity chromatography.
The kinase assay is based on the LanthaScreen™ technology. LanthaScreen™ is the detection of Time-Resolved Fluorescence Resonance Energy Transfer (TR-FRET) using lanthanide chelates to measure interactions between various binding partners. In a TR-FRET kinase assay, a long-lifetime lanthanide donor species is conjugated to an antibody that specifically binds to a phosphorylated product of a kinase reaction that is labeled with a suitable acceptor fluorophore. This antibody-mediated interaction brings the lanthanide donor and the acceptor into proximity such that resonance energy transfer can take place, resulting in a detectable increase in the FRET signal.
The kinase reactions were performed in 384 well microtiter plates in a total reaction volume of 10.05 μL. The assay plates were prepared with 0.05 μL per well of test compound in the appropriate test concentration, as described under “preparation of compound dilutions”. The reactions were started by combining 5 μL of ATP solution with 5 μL of enzyme-substrate mix (consisting of kinase and substrate). The final concentrations in the kinase reactions were 25 mM Tris/HCl, 1 mM DTT, 0.025% Tween20, 10 μM sodium orthovanadate, 0.25% BSA, 0.5% DMSO, 10 mM MgCl2, 3 mM MnCl2, 2 μM ATP, 50 nM Fluorescein-PolyEAY, and 0.3 nM enzyme. The reactions were incubated for 60 minutes at room temperature and stopped by adding 5 μL of stop buffer (50 mM EDTA, 0.04% NP40, 20 mM Tris/HCl). Subsequently 5 μL of detection mix (50 mM Tris/HCl, 2 mM DTT, 0.05% Tween20, 20 μM sodium orthovanadate, 1% BSA, 1 nM Tb-PY20 antibody) were added to the stopped reactions. After 45 minutes incubation in dark at room temperature, the plates were measured in a Perkinelmer Envision fluorescence reader. The effect of compound on the enzymatic activity was in all assays obtained from the linear progress curves and normally determined from one reading (end point measurement).
These endpoint results should therefore only be seen as an indicator for the activity range, since repeated measurements can result in about two times higher or lower values.

human platelet PDE3 = target: T1, human platelet PDE3 (Homo sapiens, UniProt Q14432); assay: hPDE3 assay ([3H]cAMP scintillation proximity assay); type: biochemical; settings: human platelet PDE3, [3H]cAMP SPA, 30 min at room temperature
T1 construct: Human platelet PDE3 (partially purified from human platelets); from tissue; host or cells: human platelets
T1 sequence (Q14432 whole entry): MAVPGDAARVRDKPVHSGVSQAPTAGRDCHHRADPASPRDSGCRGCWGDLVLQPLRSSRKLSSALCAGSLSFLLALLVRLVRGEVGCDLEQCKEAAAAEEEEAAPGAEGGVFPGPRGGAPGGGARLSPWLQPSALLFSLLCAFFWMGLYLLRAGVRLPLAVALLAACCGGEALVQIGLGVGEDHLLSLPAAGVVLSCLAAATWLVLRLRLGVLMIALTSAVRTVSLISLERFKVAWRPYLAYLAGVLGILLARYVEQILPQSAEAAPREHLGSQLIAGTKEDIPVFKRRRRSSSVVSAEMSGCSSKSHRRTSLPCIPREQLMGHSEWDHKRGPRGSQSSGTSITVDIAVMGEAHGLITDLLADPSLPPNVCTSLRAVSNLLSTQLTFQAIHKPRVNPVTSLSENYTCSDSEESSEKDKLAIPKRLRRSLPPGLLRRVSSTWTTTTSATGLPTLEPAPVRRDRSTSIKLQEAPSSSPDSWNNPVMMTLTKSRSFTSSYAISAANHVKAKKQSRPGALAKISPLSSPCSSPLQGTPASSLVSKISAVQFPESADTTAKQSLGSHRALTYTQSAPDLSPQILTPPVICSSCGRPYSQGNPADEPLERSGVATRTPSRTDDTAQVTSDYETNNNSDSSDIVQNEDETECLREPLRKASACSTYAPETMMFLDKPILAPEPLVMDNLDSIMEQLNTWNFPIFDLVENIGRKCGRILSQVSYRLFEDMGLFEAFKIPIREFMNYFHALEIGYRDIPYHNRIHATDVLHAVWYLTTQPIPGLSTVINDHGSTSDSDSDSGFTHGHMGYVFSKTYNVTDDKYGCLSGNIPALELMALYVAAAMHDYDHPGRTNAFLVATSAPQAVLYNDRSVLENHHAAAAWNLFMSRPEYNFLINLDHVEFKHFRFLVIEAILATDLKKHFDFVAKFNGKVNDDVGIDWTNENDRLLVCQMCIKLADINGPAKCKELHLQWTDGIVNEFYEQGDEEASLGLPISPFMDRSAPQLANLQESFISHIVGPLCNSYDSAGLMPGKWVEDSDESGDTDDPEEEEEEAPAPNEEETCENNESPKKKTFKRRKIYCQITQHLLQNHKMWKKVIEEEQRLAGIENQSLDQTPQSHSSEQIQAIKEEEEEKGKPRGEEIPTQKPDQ

Row | Structure (SMILES) | IC50 (GTL16 cells) [nM] | IC50 [1] [nM] | IC50 (human platelet PDE3) [nM]
1 | C/C(=N\O)c1ccc2nnc(C3(c4ccc5ncc(N6CCN(C)CC6)cc5c4)CC3)n2n1 [Example 27] | 240 | 31 | –
2 | C/C(=N\OCC1CC1)c1ccc2nnc(Cc3ccc4ncc(-c5cnn(C)c5)cc4c3)n2n1 [Example 7, (E)-1-{3-[3-(1-Methyl-1H-pyrazol-4-yl)quinolin-6-ylmethyl]-[1,2,4]triazolo[4,3-b]pyridazin-6-yl}-ethanone O-cyclopropylmethyl-oxime] | 8 | 11 | –
3 | C/C(=N\O)c1ccc2nnc(Cc3ccc4ncc(N5CCN(C)CC5)cc4c3)n2n1 [Example 14, (E)-1-(3-((3-(4-Methylpiperazin-1-yl)quinolin-6-yl)methyl)-[1,2,4]triazolo[4,3-b]pyridazin-6-yl)ethanone oxime] | 2 | 3 | 25000
4 | C/C(=N\O)c1ccc2nnc([C@H](C)c3c(F)cc4ncc(C(C)(C)O)cc4c3F)n2n1 [24-(R)] | 126 | 146 | 6000
5 | C/C(=N\O)c1ccc2nnc(Sc3ccc4ncc(N5CCOCC5)cc4c3)n2n1 [Example 10, (E)-1-[3-(3-Morpholin-4-yl-quinolin-6-ylsulfanyl)-[1,2,4]triazolo[4,3-b]pyridazin-6-yl]-ethanone oxime] | 1 | 4 | –
6 | C/C(=N\O)c1ccc2nnc([C@@H](C)c3c(F)cc4ncc(C(C)(C)O)cc4c3F)n2n1 [24-(S)] | 80 | 5 | 8000
7 | CO/N=C(\C)c1ccc2nnc([C@H](C)c3ccc4ncc(-c5cnn(C)c5)cc4c3)n2n1 [Example 3-(R)] | 27 | 26 | 11000
8 | C/C(=N\O)c1ccc2nnc(Cc3ccc4ncc(CN5CCCCC5)cc4c3)n2n1 [Example 18, (E)-1-(3-((3-(Piperidin-1-ylmethyl)quinolin-6-yl)methyl)-[1,2,4]triazolo[4,3-b]pyridazin-6-yl)ethanone oxime] | 317 | 207 | –
9 | C/C(=N\O)c1ccc2nnc(Sc3ccc4ncc(N5CCC(O)CC5)cc4c3)n2n1 [Example 29, (E)-1-(3-((3-(4-Hydroxypiperidin-1-yl)quinolin-6-yl)sulfanyl)-[1,2,4]triazolo[4,3-b]pyridazin-6-yl)-ethanone oxime] | 1 | 0.7 | > 30000
10 | C/C(=N\O)c1ccc2nnc(Cc3ccc4ncc(N5CCOCC5)cc4c3)n2n1 [Example 13, (E)-1-(3-((3-Morpholin-4-yl-quinolin-6-yl)methyl)-[1,2,4]triazolo[4,3-b]pyridazin-6-yl)ethanone oxime] | 10 | 2 | 14000
11 | C/C(=N\O)c1ccc2nnc(Cc3ccc4ncc(N5C[C@@H]6C[C@H]5CN6C)cc4c3)n2n1 [Example 19, (E)-1-(3-((3-((1S,4S)-5-Methyl-2,5-diazabicyclo[2.2.1]heptan-2-yl)quinolin-6-yl)methyl)-[1,2,4]triazolo[4,3-b]pyridazin-6-yl)ethanone oxime] | 12 | 5 | –
12 | C/C(=N\O)c1ccc2nnc(Cc3c(F)cc4ncc(-c5c(C)noc5C)cc4c3F)n2n1 [Example 23, (E)-1-(3-((3-(3,5-Dimethylisoxazol-4-yl)-5,7-difluoroquinolin-6-yl)methyl)-[1,2,4]triazolo[4,3-b]pyridazin-6-yl)ethanone oxime] | 11 | 8 | –
13 | CO/N=C(\C)c1ccc2nnc(Cc3ccc4ncc(-c5cnn(C)c5)cc4c3)n2n1 [Example 6, (E)-1-{3-[3-(1-Methyl-1H-pyrazol-4-yl)quinolin-6-ylmethyl]-[1,2,4]triazolo[4,3-b]pyridazin-6-yl}-ethanone O-methyl-oxime] | 0.5 | 4 | –
14 | C/C(=N\O)c1ccc2nnc(C(C)c3ccc4ncc(-c5cnn(C)c5)cc4c3)n2n1 (centres unmarked) [Example 1, (E)-1-(3-{1-[3-(1-Methyl-1H-pyrazol-4-yl)quinolin-6-yl]-ethyl}-[1,2,4]triazolo[4,3-b]pyridazin-6-yl)-ethanone oxime] | 9 | 5 | –
15 | C/C(=N\N)c1ccc2nnc(C(C)c3ccc4ncc(-c5cnn(C)c5)cc4c3)n2n1 (centres unmarked) [Example 5] | 1 | 5 | –
16 | C/C(=N\O)c1ccc2nnc(Sc3ccc4ncc(N5CCC(N(C)C)C5)cc4c3)n2n1 (centres unmarked) [Example 33, (E)-1-(3-((3-(3-(dimethylamino)pyrrolidin-1-yl)quinolin-6-yl)sulfanyl)-[1,2,4]triazolo[4,3-b]pyridazin-6-yl)ethanone oxime] | 1 | 0.9 | –
17 | CCO/N=C(\C)c1ccc2nnc(C(C)c3ccc4ncc(-c5cnn(C)c5)cc4c3)n2n1 (centres unmarked) [Example 2, (E)-1-(3-{1-[3-(1-Methyl-1H-pyrazol-4-yl)quinolin-6-yl]-ethyl}-[1,2,4]triazolo[4,3-b]pyridazin-6-yl)-ethanone O-ethyl-oxime] | 2 | 6 | –
18 | C/C(=N\OCC1CC1)c1ccc2nnc(C(C)c3ccc4ncc(CN5CCOCC5)cc4c3)n2n1 (centres unmarked) [Example 9, (E)-1-{3-[1-(3-Morpholin-4-ylmethyl-quinolin-6-yl)-ethyl]-[1,2,4]triazolo[4,3-b]pyridazin-6-yl}-ethanone O-cyclopropylmethyl-oxime] | 311 | 86 | –
19 | C/C(=N\O)c1ccc2nnc(Cc3c(F)cc4ncc(CN5CCOCC5)cc4c3F)n2n1 [Example 17, (E)-1-(3-((5,7-Difluoro-3-(morpholin-4-yl-methyl)quinolin-6-yl)methyl)-[1,2,4]triazolo[4,3-b]pyridazin-6-yl)ethanone oxime] | 10 | 3 | –
20 | C/C(=N\O)c1ccc2nnc(Cc3ccc4ncc(NC5CCOCC5)cc4c3)n2n1 [Example 34, (E)-1-{3-[3-(Tetrahydro-pyran-4-ylamino)-quinolin-6-ylmethyl]-[1,2,4]triazolo[4,3-b]pyridazin-6-yl}-ethanone oxime] | 10 | 2 | –
21 | CCO/N=C(\C)c1ccc2nnc(Cc3ccc4ncc(-c5cnn(C)c5)cc4c3)n2n1 [Example 8, (E)-1-{3-[3-(1-Methyl-1H-pyrazol-4-yl)quinolin-6-ylmethyl]-[1,2,4]triazolo[4,3-b]pyridazin-6-yl}-ethanone O-ethyl-oxime] | 0.3 | 3 | –
22 | C/C(=N\O)c1ccc2nnc(Cc3ccc4ncc(N5CCC(O)CC5)cc4c3)n2n1 [Example 20, (E)-1-(3-((3-(4-Hydroxypiperidin-1-yl)quinolin-6-yl)methyl)-[1,2,4]triazolo[4,3-b]pyridazin-6-yl)ethanone oxime] | 17 | 4 | –
23 | C/C(=N\OCC1CC1)c1ccc2nnc(C(C)c3ccc4ncc(-c5cnn(C)c5)cc4c3)n2n1 (centres unmarked) [Example 4, (E)-1-(3-{1-[3-(1-Methyl-1H-pyrazol-4-yl)quinolin-6-yl]-ethyl}-[1,2,4]triazolo[4,3-b]pyridazin-6-yl)-ethanone O-cyclopropylmethyl-oxime] | – | 25 | –
24 | C/C(=N\O)c1ccc2nnc(Cc3ccc4ncc(CN5CCN(C)CC5)cc4c3)n2n1 [Example 16, (E)-1-(3-((3-((4-Methylpiperazin-1-yl)methyl)quinolin-6-yl)methyl)-[1,2,4]triazolo[4,3-b]pyridazin-6-yl)ethanone oxime] | 491 | 25 | –
